From US6689756B2, “Treatment of neurological disease” (Integra LifeSciences Corporation, priority 2001, dated 2004)

Experiment: oxygen carrying capacity of nutrient formulation
Format: physicochemical
Details: F44E formulations compared with the perfluorodecalin nutrient solution of Bell et al., Neurology 37:133, 1987
Source text: where m and n or independently at least 1 and m+n equals 6 to 10. Preferably, the double bond is trans. One preferred poly-fluorinated, oxygen-carrying compound is trans-Bis-perfluorobutyl ethylene (m and n each equal 4), which is also known as F44E. F44E formulations have a 25% greater oxygen carrying capacity than that of a prior nutrient solution made with perfluorodecalin, Bell et al., Neurology 37:133, 1987. Formulations comprising F44E are less viscous and relatively easier to perfuse.

**Q.** For `FC(F)(F)C(F)(F)C(F)(F)C(F)(F)/C=C/C(F)(F)C(F)(F)C(F)(F)C(F)(F)F` [F44E, trans-Bis-perfluorobutyl ethylene], which “greater oxygen carrying capacity than that of a prior nutrient solution made with perfluorodecalin” value is on record?
**A.** Its value is 25%.
